Experimental data from US20260174677A1, “METHODS OF TREATING INSULIN RESISTANCE AND ASSOCIATED DISORDERS” (The University of Melboune, priority 2022, published 2026).

Columns and labels:
[1] = test system: ARC CSPG-ECM; assay: Intranasal PZ6005 in diet-induced obese mice: WFA immunostaining of CSPG-ECM within the ARC; type: in vivo, mouse; conditions: 14 days; for ARC CSPG-ECM area, lower than the controls / ARC CSPG-ECM intensity, decrease: 12-week-HFHS-diet-fed obese mice
Experimental: For detection of aggrecan, GFP, HABP, parvalbumin, mCherry, versican, tenascin-C, HAPLN1, neurocan, phosphacan, brevican, WFA and WFA-FITC sections were incubated at room temperature for 1 h in blocking buffer (0.3% Triton X-100, 5% normal goat serum, Gibco, ThermoFisher, MA, 0.02% sodium azide) and then overnight at 4° C. in 1% blocking buffer containing either rabbit anti-aggrecan (1:1000, AB1031, Millipore, MA), chicken anti-GFP (1:2000; ab13970, Abcam, Cambridge, UK), Biotinylated HABP (1:100, 385911, Burlington, MA), sheep anti-parvalbumin (1:1000), in house), rabbit anti-dsRed (1:2000, 600-401-379, Rockland, PA), rabbit anti-versican (1:1000, AB1033, Millipore, MA), tenascin-C (1:500, M1-B4, Developmental Studies Hybridoma Bank, Iowa), HAPLN1 (1:500, 9/30/8-A-4, Developmental Studies Hybridoma Bank, Iowa), neurocan (1:300, 1F6-S, Developmental Studies Hybridoma Bank, Iowa), phophacan (1:300, 3F8, Developmental Studies Hybridoma Bank, Iowa), brevican (1:500, 610895, BD Transduction Laboratories), biotinylated WFA (1:2000, L1516; Sigma-Aldrich, MO), WFA-FITC (1:2000, FL-1351-2, Vector Laboratories, CA), rabbit anti PGP9.5 (1:1000, 14730-1-AP, Proteintech, IL), guinea pig anti AgRP (1:500, AS506, Antibodies Australia, Melbourne, AUS). After washing with PBS-T (0.3% Triton X-100 in PBS, +0.02% sodium azide), sections were incubated with goat anti-chicken Alexa Fluor 488 (ab150169, Abcam, Cambridge, UK), goat anti-rabbit Alexa Fluor-488, 595, 647 (ab150077, ab150080, ab150083, Abcam, Cambridge, UK), donkey anti-sheep Alexa Fluor 594 (ab150180, Abcam, Cambridge, UK), Alexa Fluor 594, 647 Streptavidin (405240, BioLegend, CA)—conjugated secondary antibodies in 5% blocking buffer for 2 h at room temperature. […] Brightness and contrast in the colour merged images have been adjusted to aid in the analysis of co-incidence.
All image quantification was performed in Image J (NIH) software (NIH, MA). Raw images underwent background subtraction using a rolling ball algorithm to minimize background and any potential variance in tissue autofluorescence. To quantify area and intensity of the CSPG-ECM within each brain region (ARC, VMH or RSG cortex) images were thresholded and binarized to create a region of interest (ROI) mask of only the CSPG-ECM. For each brain area, CSPG-ECM ROI area (μm^2) and intensity (sum of all pixel intensities within the ROI) was calculated. This process was automated to minimise bias and to account for differences in brain nuclei size across multiple images. Brain nuclei were defined in accordance with the Paxinos and Franklin mouse brain atlas (http://labs.gaidi.ca/mouse-brain-atlas/). The area and intensity of CSPG-ECM within each region was normalised to the respective control.
(§1) Conscious mice were restrained by scruffing and inverted parallel to the floor with the chin at ˜180-degree angle with the neck. Using a 10 μL tip, a pipettor was loaded with 5 μl of vehicle (ddH2O) or fluorosamine (1 mg/animal in 20 μl or 5 mg/animal in 20 μl). The tip of the filled pipettor was placed near the left nostril at a 45-degree angle, and the drug was ejected to form a small 5 μl droplet at tip for the mouse to inhale. Immediately after the mouse inhaled the first droplet the remaining solution was ejected to form another small droplet for the mouse to inhale through the same nostril. The mouse was held in this position for 15 seconds before the procedure was repeated in the right nostril.

[2] = Intranasal PZ6005 in obese mice: I.P. GTT, ITT and fasting glucose; type: in vivo, mouse
Experimental: Metabolic measurements were undertaken in the Melbourne Mouse Metabolic Phenotyping Platform (The University of Melbourne, Australia). Glucose tolerance tests were performed on 6 h fasted conscious mice respectively by injecting D-glucose (2 mg/g of lean body mass and 1 mg/g lean mass for db/db and HFHS+STZ mice) into the peritoneal cavity and measuring glucose in tail blood immediately before and at 15, 30, 45, 60, 90 and 120 min after injection using an Accu-Check glucometer (Roche, Germany). The areas under glucose excursion curves were determined and expressed as mmol/1×min. Fasted (12 h fast) plasma insulin or glucose levels were determined using a Rat/Mouse Insulin ELISA (EZRMI-13K, Merck Millipore, CA) or an Accu-Check glucometer respectively. The HOMA-IR was calculated using the equation [(glucose×insulin)/405]. Adiposity was measured using TD-NMR minispec (Bruker Optics Inc., Billerica, MA).
as §1, with “right nostril. The mouse was returned to the cage for 2 minutes and the process was repeated so that each mouse received four droplets of 5 μl each, delivering a total of 20 μl of solution. All drugs were administered delivered approximately 1 h before lights off […].” for “right nostril.”
Obese mice intranasally receiving either vehicle or PZ6005 (1 or 5 mg/animal/day) were subjected to I.P. GTT after 6 hrs fasting period and I.P. insulin tolerance test (ITT) after 4 hrs fasting period.

## CC(=O)NC1C(OC(C)=O)OC(COC(C)=O)[C@@H](F)C1OC(C)=O (stereo partly drawn) [fluorosamine, per-O-acetylated-4-F-N-acetylglucosamine]
[1]; I.N. 1 mg/animal/day
  ARC CSPG-ECM area, lower than the controls: 13.54±1.03%
  ARC CSPG-ECM intensity, decrease: 15.94±7.17%
[1]; I.N. 5 mg/animal/day (highest dose)
  ARC CSPG-ECM intensity, decrease: 30.16±1.52%
[1]; I.N. 5 mg/animal/day
  ARC CSPG-ECM area, lower than the controls: 13.59±4.09%
[1]; intranasal, diet-induced obese mice, dose not given
  ARC neurofibrosis: successfully attenuated ARC neurofibrosis
[2]; I.N. 5 mg, after 60 mins of I.P. glucose in GTT and after 0 mins of I.P. insulin
  glucose clearance rate vs 1 mg treatment group and controls: significantly higher glucose clearance rate
[2]; I.N. 1 or 5 mg/animal/day, obese mice
  insulin sensitivity (ITT): enhanced insulin sensitivity
[2]; I.N. 1 or 5 mg/animal/day, obese mice, vs control littermates
  glucose tolerance (glucose excursion in GTT and ITT): better glucose tolerance than control littermates
[2]; both doses of intranasal treatment (1 or 5 mg/animal/day)
  fasting (12 hrs) glucose level: Reduction
